Results reported in patent US8883826B2, “Alkynyl derivatives as modulators of metabotropic glutamate receptors” (Addex Pharma SA, priority 2004, dated 2014).
Entries after “also recorded” stand apart in the source; their conditions may differ.

Experiments:
mGluR5 = target: T1, mGluR5 (Rattus norvegicus, UniProt P31424); assay: mGluR5 binding assay ([3H]-MPEP radioligand competition); conditions: competition with 3 nM [3H]-MPEP, rat brain cortical membranes, 1 h at 4 °C; mean of at least three independent experiments in duplicate
T1 construct: tissue Charles River Laboratories; host or cells: rat brain cortex membranes (Sprague-Dawley)
In short: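 Rat cortical membranes (50 μg) were incubated 1 h at 4 °C with 3 nM [3H]-MPEP and compound (0.003 nM-30 μM, 8 points) in HEPES buffer pH 7.4 with Mg2+, Ca2+ and NaCl. 30 μM MPEP defined non-specific binding, and bound label was counted after filtration. IC50 came from non-linear regression, as the mean of ≥3 experiments run in duplicate.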

Male C57BL6/j mice = assay: Marble burying model of anxiety; format: in vivo, mouse; conditions: 50 mg/kg po, 60 minutes prior to test, n=10/group, t (1, 18)=3.92
Excerpt: Marble Burying Model of Anxiety
Marble burying behavior in mice is reduced by compounds which are efficacious anxiolytics in humans. Thus, marble burying in mice has been used as a model for the prediction of anxiolytic-like effects of compounds (Millan, M. J. et al., Neuropharmacology, 42:677-684 (2002)).
Selective negative allosteric modulators (allosteric antagonists) of the metabotropic glutamate receptor subtype 5 (mGluR5) have been shown previously to reduce marble burying in mice (Spooren, W. P. et al., Journal of Pharmacology and Experimental Therapeutics, 295:1267-1275 (2000)). […] Such compounds may be useful in the treatment of anxiety and related disorders.
The present studies were performed in accordance with the animal care and use policies of Addex Pharmaceuticals and the EEC directives on the protection of animals used for experimental and other scientific purposes (86/609/EEC and subsequent revisions). […]
The effect of compounds on marble burying in mice was tested. […] After removal of the mice from the test cages, the number of marbles buried was counted. […]
Statistical analyses were performed using GraphPad PRISM version 4.01 statistical software (GraphPad, San Diego, Calif., USA). Data were analyzed using one-way analysis of variance (ANOVA) followed by Bonferroni-corrected multiple comparisons, or t tests if only 2 groups were present. […]

T1 sequence (P31424 21-1203): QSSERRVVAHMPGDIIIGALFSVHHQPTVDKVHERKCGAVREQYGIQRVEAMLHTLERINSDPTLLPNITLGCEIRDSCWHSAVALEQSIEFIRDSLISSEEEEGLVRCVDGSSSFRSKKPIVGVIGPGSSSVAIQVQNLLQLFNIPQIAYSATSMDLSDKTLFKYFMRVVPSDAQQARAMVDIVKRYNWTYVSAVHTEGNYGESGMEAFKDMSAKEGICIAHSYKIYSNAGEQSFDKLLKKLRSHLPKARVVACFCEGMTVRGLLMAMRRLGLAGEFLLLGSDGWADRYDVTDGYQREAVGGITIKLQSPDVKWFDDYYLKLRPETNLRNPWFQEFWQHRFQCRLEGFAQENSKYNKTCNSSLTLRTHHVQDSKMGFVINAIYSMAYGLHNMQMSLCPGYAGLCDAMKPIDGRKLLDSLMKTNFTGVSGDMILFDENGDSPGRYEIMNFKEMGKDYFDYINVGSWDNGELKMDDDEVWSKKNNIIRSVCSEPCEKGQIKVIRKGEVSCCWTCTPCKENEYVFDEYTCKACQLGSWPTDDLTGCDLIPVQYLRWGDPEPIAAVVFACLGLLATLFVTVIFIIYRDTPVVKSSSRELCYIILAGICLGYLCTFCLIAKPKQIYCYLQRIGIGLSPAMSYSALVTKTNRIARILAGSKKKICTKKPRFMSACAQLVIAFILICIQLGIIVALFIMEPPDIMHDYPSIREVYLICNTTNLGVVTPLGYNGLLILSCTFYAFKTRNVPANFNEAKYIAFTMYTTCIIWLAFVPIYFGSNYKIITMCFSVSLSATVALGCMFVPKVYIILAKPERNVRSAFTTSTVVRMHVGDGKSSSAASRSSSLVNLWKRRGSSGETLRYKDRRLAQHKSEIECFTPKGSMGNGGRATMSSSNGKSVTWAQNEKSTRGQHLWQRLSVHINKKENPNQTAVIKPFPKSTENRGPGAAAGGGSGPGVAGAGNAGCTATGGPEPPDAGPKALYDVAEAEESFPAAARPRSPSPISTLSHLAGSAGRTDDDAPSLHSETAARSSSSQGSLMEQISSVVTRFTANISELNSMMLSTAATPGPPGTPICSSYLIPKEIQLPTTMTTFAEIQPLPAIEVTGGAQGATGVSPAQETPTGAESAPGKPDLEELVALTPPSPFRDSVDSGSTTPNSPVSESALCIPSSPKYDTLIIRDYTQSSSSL

melting point [°C] | IC50 (mGluR5) [µM] | Structure (SMILES) | marble burying in mice (number of marbles buried vs vehicle) (Male C57BL6/j mice)
71 to 73 | < 10 | C(#Cc1ccccn1)CCn1nnc(-c2ccccc2)n1 [Example 32, 2-(4-(5-Phenyl-2H-tetrazol-2-yl)but-1-ynyl)pyridine] | –
101.5 to 102.2 | < 10 | Clc1ccc2nc(CCC#Cc3ccccn3)oc2c1 [Example 36, 6-Chloro-(2-(4-pyridin-2-yl)but-3-ynyl)benzo[d]oxazole] | –
83 to 84 | < 10 | Fc1ccc(-c2cc(CCC#Cc3ccccn3)on2)cc1 [Example 168, 2-(4-(3-(4-Fluorophenyl)isoxazol-5-yl)but-1-ynyl)pyridine] | –
89 to 89.5 | < 0.05 | Fc1cccc2oc(CCC#Cc3ccccn3)nc12 [Example 90, 4-Fluoro-2-(4-(pyridin-2-yl)but-3-ynyl)benzo[d]oxazole] | –
82 to 84 | < 0.05 | FCc1nc(C#CCCc2cn3cc(F)ccc3n2)cs1 [Example 224, 6-Fluoro-2-(4-(2-(fluoromethyl)thiazol-4-yl)but-3-ynyl)-imidazo[1,2-a]pyridine] | –
126 to 126.5 | < 0.05 | N#Cc1cccc2nc(CCC#Cc3ccccn3)oc12 [Example 92, 2-(4-(Pyridin-2-yl)but-3-ynyl)benzo[d]oxazole-7-carbonitrile] | –
106 to 107 | < 0.05 | Clc1cccn2cc(CCC#Cc3ccccn3)nc12 [Example 255, 8-Chloro-2-(4-(pyridin-2-yl)but-3-ynyl)-imidazo[1,2-a]pyridine] | significantly attenuates marble burying; also recorded: buried significantly fewer marbles than vehicle-treated mice
98.5 to 99.4 | < 0.05 | C(#Cc1ccccn1)CCc1nc2ccccc2s1 [Example 35, 2-(4-(Pyridin-2-yl)but-3-ynyl)benzo[d]thiazole] | –

Further lines, the compound ahead of its results:

Structure (SMILES) | melting point [°C] | IC50 (mGluR5) [µM] | marble burying in mice (number of marbles buried vs vehicle) (Male C57BL6/j mice)
O=C(CCC#Cc1cccc(CF)n1)Nc1ccc(F)cc1 [Example 232, 5-(6-(Fluoromethyl)pyridin-2-yl)-N-(4-fluorophenyl)pent-4-ynamide] | 110 | < 10 | –
Fc1cccnc1C#CCCc1nc2ccccc2o1 [Example 230] | 86 to 88 | < 10 | –
CCNc1cccc(C#CCCn2nc3ccccc3n2)n1 [Example 170, 6-(4-(2H-Benzo[d][1,2,3]triazol-2-yl)but-1-ynyl)-N-ethylpyridin-2-amine] | 73 to 78 | < 10 | –
O=C(CCC#Cc1ccccn1)Nc1ccccc1F [Example 186, N-(2-Fluorophenyl)-5-(pyridin-2-yl)pent-4-ynamide] | 82 to 84 | < 10 | –
Cc1ccc(Cl)cc1-c1noc(CCC#Cc2ccccn2)n1 [Example 60, 2-(4-(3-(5-Chloro-2-methylphenyl)-1,2,4-oxadiazol-5-yl)but-1-ynyl)pyridine] | 66 to 68 | < 10 | –
Fc1ccc(C#CCCC#Cc2ccccn2)cc1 [Example 38, 2-(6-(4-Fluorophenyl)hexa-1,5-diynyl)pyridine] | 68 to 69 | < 10 | –
C(#Cc1ccccn1)CCc1nc2ccccc2o1.Cl [Example 8, 2-(4-(Pyridin-2-yl)but-3-ynyl)benzo[d]oxazole Hydrochloride] | 143.5 to 145 | < 0.05 | –
O=C(CCC#Cc1ccccn1)Nc1ccc(F)cc1 [Example 34, N-(4-Fluorophenyl)-5-(pyridine-2-yl)pent-4-ynamide] | 189.9 to 190.2 | < 1 | –
O=C(CCC#Cc1ccccn1)Nc1ccc(Cl)cc1 [Example 244, N-(4-Chlorophenyl)-5-(pyridin-2-yl)pent-4-ynamide] | 110 to 111 | < 10 | –
O=C1c2ccccc2C(=O)N1CCCC#Cc1ccccn1 [Example 242, 2-(5-(Pyridin-2-yl)pent-4-ynyl)isoindoline-1,3-dione] | 127 to 129 | < 10 | –
Fc1cc2nn(CCC#Cc3ccccn3)nc2cc1F [Example 153, 5,6-Difluoro-2-(4-(pyridin-2-yl)but-3-ynyl)-2H-benzo[d][1,2,3]triazole] | 131 to 132 | < 10 | –
FCc1cccc(C#CCCc2cn3cccc(OCc4ccccc4)c3n2)n1 [Example 226, 8-(Benzyloxy)-2-(4-(6-(fluoromethyl)pyridin-2-yl)but-3-ynyl)-imidazo[1,2-a]pyridine] | 92 to 94 | < 10 | –
Fc1ccc2oc(CCC#Cc3ccccn3)nc2c1 [Example 37, 5-Fluoro-(2-(4-pyridin-2-yl)but-3-ynyl)benzo[d]oxazole] | 100.1 to 101 | < 10 | –
Cn1c(CCC#Cc2cccc(CF)n2)nc2c(F)cc(F)cc21 [Example 193, 4,6-Difluoro-2-(4-(6-(fluoromethyl)pyridin-2-yl)but-3-ynyl)-1-methyl-1H-benzo[d]imidazole] | 103 to 104 | < 0.5 | –
FCc1cccc(C#CCCc2nc3ccccc3s2)n1 [Example 241, 2-(4-(6-(Fluoromethyl)pyridin-2-yl)but-3-ynyl)benzo[d]thiazole] | 74 to 76 | < 0.05 | –
FCc1cccc(C#CCCc2cnc3cc(F)c(F)cc3n2)n1 [Example 148, 6,7-Difluoro-2-(4-(6-(fluoromethyl)pyridin-2-yl)but-3-ynyl)quinoxaline] | 134.9 to 138.5 | < 10 | –
O=c1c2ccccc2ccn1CCC#Cc1ccccn1 [Example 183, 2-(4-(Pyridin-2-yl)but-3-ynyl)isoquinolin-1(2H)-one] | 85 to 90 | < 0.5 | –
Cn1c(CCC#Cc2cccc(CF)n2)nc2ccccc21 [Example 190, 2-(4-(6-(Fluoromethyl)pyridin-2-yl)but-3-ynyl)-1-methyl-1H-benzo[d]imidazole] | 95.3 to 96.3 | < 0.5 | –
